Key:
Type in all cases: biochemical
MMP-9 = biological target: T1, MMP-9 (Homo sapiens, UniProt P14780); experiment: Automated MMP Profiling Assay, MMP-9 fluorogenic; conditions: for IC50: 96-well automated, P218
T1 construct: from tissue; host or cells: human polymorphonuclear leukocytes (PMN) from whole blood (New York Blood Center), PMA-stimulated supernatant

MMP-3 = biological target: T2, MMP-3 (Homo sapiens, UniProt P08254); experiment: Automated MMP Profiling Assay, MMP-3 fluorogenic; conditions: 96-well automated, P218
T2 construct: Truncated Prostromelysin-257 was expressed in a soluble form in E.coli; made in house; host or cells: E. coli
T2 sequence (P08254 100-274 limits assumed): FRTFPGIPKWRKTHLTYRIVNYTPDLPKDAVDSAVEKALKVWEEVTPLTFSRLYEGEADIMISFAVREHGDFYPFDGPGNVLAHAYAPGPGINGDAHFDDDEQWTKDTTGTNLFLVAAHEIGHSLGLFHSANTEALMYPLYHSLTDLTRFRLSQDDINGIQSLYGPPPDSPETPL
Text: This assay with each invention compound was run with the three enzymes MMP-3, MMP-9 and MMP-2 in parallel as adapted for a 96-well microtitre plate using a Hamilton A® workstation.

MMP-2 = biological target: T3, MMP-2 (Homo sapiens, UniProt P08253); experiment: Automated MMP Profiling Assay, MMP-2 fluorogenic; conditions: 96-well automated, P218; read-out: MMP-2 Fluorogenic IC50 (profiling)
T3 sequence (P08253 110-660): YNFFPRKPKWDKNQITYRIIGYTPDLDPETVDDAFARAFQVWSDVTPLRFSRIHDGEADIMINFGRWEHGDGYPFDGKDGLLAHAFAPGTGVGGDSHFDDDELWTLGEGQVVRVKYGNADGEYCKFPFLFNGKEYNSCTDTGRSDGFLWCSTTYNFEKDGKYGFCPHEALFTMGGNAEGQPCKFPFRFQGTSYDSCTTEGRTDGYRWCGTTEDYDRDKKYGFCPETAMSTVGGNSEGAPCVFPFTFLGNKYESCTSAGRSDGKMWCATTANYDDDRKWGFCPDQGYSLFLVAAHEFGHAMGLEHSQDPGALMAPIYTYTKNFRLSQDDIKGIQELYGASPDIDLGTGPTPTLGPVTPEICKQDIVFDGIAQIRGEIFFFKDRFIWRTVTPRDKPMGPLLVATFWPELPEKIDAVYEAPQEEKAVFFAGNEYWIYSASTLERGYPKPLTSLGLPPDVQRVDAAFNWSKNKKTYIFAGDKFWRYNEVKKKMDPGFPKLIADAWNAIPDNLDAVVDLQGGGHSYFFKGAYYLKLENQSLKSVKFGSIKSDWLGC

T1 sequence (P14780 107-707 limits assumed): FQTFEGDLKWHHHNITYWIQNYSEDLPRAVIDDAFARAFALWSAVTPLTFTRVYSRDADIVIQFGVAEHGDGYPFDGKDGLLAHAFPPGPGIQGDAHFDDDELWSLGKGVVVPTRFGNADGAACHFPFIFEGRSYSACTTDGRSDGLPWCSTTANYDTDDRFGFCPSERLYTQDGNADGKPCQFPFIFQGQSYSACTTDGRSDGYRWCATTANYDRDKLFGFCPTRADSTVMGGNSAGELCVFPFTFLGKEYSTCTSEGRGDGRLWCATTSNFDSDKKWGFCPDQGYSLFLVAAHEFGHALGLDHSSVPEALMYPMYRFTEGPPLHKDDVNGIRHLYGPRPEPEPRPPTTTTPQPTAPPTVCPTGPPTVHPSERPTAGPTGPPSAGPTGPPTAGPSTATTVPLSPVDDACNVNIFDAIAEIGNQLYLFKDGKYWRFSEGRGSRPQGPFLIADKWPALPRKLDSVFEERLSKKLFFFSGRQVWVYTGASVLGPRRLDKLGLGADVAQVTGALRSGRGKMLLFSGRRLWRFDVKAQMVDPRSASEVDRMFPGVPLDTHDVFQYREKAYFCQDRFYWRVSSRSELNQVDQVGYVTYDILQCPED

| Compound | IC50 (MMP-9) [nM] | IC50 (MMP-3) [nM] | IC50 (MMP-2) [nM] | inhibition at 5 µM (MMP-9) [%] |
| --- | --- | --- | --- | --- |
| O=C(CC(CCc1ccc(I)cc1)C(=O)O)c1ccc(-c2ccc(Cl)cc2)cc1 (stereo not drawn) [Example 128, [1,1'-Biphenyl]-4-butanoic acid, 4'-chloro-α-[2-(4-iodophenyl)ethyl]-γ-oxo-] | 715 | 561 | 145 |  |
| COc1cc(CCC(CC(=O)c2ccc(-c3ccc(Cl)cc3)cc2)C(=O)O)cc(OC)c1 (stereo not drawn) [Example 129, [1,1'-Biphenyl]-4-butanoic acid, 4'-chloro-α-[2-(3,5-dimethoxyphenyl)ethyl]-γ-oxo-] | 771 | 237 | 89 |  |
| O=C(CC(CCCc1ccccc1)C(=O)O)c1ccc(-c2ccc(Br)cc2)cc1 (stereo not drawn) [Example 134, [1,1'-Biphenyl]-4-butanoic acid, 4'-bromo-γ-oxo-α-(3-phenylpropyl)-] | 358 | 304 | 63 |  |
| O=C(Nc1ccc(-c2ccc(C(=O)CC(CCc3ccccc3)C(=O)O)cc2)cc1)OCc1ccccc1 (stereo not drawn) [Example 137, [1,1'-Biphenyl]-4-butanoic acid, γ-oxo-α-(2-phenylethyl)-4'-[[(phenylmethoxy)carbonyl]amino]-] | 1400 | > 1250 | 548 |  |
| CC(C)(C)OC(=O)Nc1ccc(-c2ccc(C(=O)CC(CCc3ccccc3)C(=O)O)cc2)cc1 (stereo not drawn) [Example 138, [1,1'-Biphenyl]-4-butanoic acid, 4'-[[(1,1-dimethylethoxy)carbonyl]amino]-γ-oxo-α-(2-phenylethyl)-] |  | 905 | 665 | 0 |
| CC(=O)Nc1ccc(-c2ccc(C(=O)CC(CCc3ccccc3)C(=O)O)cc2)cc1 (stereo not drawn) [Example 139, [1,1'-Biphenyl]-4-butanoic acid, 4'-(acetylamino)-γ-oxo-α-(2-phenylethyl)-] | 5000 | 5000 | 323 |  |
| CCCCC(=O)Nc1ccc(-c2ccc(C(=O)CC(CCc3ccccc3)C(=O)O)cc2)cc1 (stereo not drawn) [Example 140, [1,1'-Biphenyl]-4-butanoic acid, γ-oxo-4'-[(1-oxopentyl)amino]-α-(2-phenylethyl)-] | > 1250 | 1030 | 242 |  |
| CC(C)(C)CC(=O)Nc1ccc(-c2ccc(C(=O)CC(CCc3ccccc3)C(=O)O)cc2)cc1 (stereo not drawn) [Example 141, [1,1'-Biphenyl]-4-butanoic acid, 4'-[(3,3-dimethyl-1-oxobutyl)amino]-γ-oxo-α-(2-phenylethyl)-] |  | < 5000 | 1170 | 0 |
| O=C(CC(CCc1ccccc1C(=O)O)C(=O)O)c1ccc(-c2ccc(Cl)cc2)cc1 (stereo not drawn) [Example 143, [1,1'-Biphenyl]-4-butanoic acid, α-[2-(2-carboxyphenyl)ethyl]-4'-chloro-γ-oxo-] | 1400 | 309 | 111 |  |
| CCN(CC)C(=O)c1cccc(CCC(CC(=O)c2ccc(-c3ccc(Cl)cc3)cc2)C(=O)O)c1 (stereo not drawn) [Example 144, 4-[4-(4-chlorophenyl)phenyl]-4-oxo-2-[2-(3-N,N-diethylcarbamoyl)phenyl]butanoic acid] | 29 | 15 | 3.4 |  |
| CCN(CC)C(=O)c1cccc(CC[C@H](CC(=O)c2ccc(-c3ccc(Cl)cc3)cc2)C(=O)O)c1 [Example 146] | 2710 | 2400 | 538 |  |
| CCCCNC(=O)c1ccccc1CCC(CC(=O)c1ccc(-c2ccc(Cl)cc2)cc1)C(=O)O (stereo not drawn) [Example 147, [1,1'-Biphenyl]-4-butanoic acid, α-[2-[2-[(butylamino)carbonyl]phenyl]ethyl]-4'-chloro-γ-oxo-] | 676 | 266 | 73 |  |
| O=C(O)c1cccc(CCC(CC(=O)c2ccc(-c3ccc(Cl)cc3)cc2)C(=O)O)c1 (stereo not drawn) [Example 148, [1,1'-Biphenyl]-4-butanoic acid, α-[2-(3-carboxyphenyl)ethyl]-4'-chloro-γ-oxo-] | 454 | 90 | 54 |  |
| CCCCNC(=O)c1cccc(CCC(CC(=O)c2ccc(-c3ccc(Cl)cc3)cc2)C(=O)O)c1 (stereo not drawn) [Example 150, [1,1'-Biphenyl]-4-butanoic acid, α-[2-[3-[(butylamino)carbonyl]phenyl]ethyl]-4'-chloro-γ-oxo-] | 957 | 371 | 201 |  |
| CCN(CC)C(=O)c1ccc(CCC(CC(=O)c2ccc(-c3ccc(Cl)cc3)cc2)C(=O)O)cc1 (stereo not drawn) [Example 151, [1,1'-Biphenyl]-4-butanoic acid, 4'-chloro-α-[2-[4-[(diethylamino)carbonyl]phenyl]ethyl]-γ-oxo-] | 607 | 371 | 70 |  |
| CCCCNC(=O)c1ccc(CCC(CC(=O)c2ccc(-c3ccc(Cl)cc3)cc2)C(=O)O)cc1 (stereo not drawn) [Example 152, [1,1'-Biphenyl]-4-butanoic acid, α-[2-[4-[(butylamion)carbonyl]phenyl]ethyl]-4'-chloro-γ-oxo-] | 597 | 367 | 210 |  |
| O=C(O)c1ccc(CCC(CC(=O)c2ccc(-c3ccc(Cl)cc3)cc2)C(=O)O)cc1 (stereo not drawn) [Example 153, [1,1'-Biphenyl]-4-butanoic acid, α-[2-(4-carboxyphenyl)ethyl]-4'-chloro-γ-oxo-] | 1010 | 594 | 127 |  |
| COc1ccc(-c2ccc(C(=O)CC(CCc3ccccc3)C(=O)O)cc2)cc1 (stereo not drawn) [Example 154, [1,1'-Biphenyl]-4-butanoic acid, 4'-methoxy-γ-oxo-α-(2-phenylethyl)-] | 875 | 470 | 37 |  |
| O=C(CC(CCc1ccccc1)C(=O)O)c1ccc(-c2ccc(O)cc2)cc1 (stereo not drawn) [Example 155, [1,1'-Biphenyl]-4-butanoic acid, 4'-hydroxy-γ-oxo-α-(2-phenylethyl)-] | > 1250 | 777 | 50 |  |
| CCOc1ccc(-c2ccc(C(=O)CC(CCc3ccccc3)C(=O)O)cc2)cc1 (stereo not drawn) [Example 156, [1,1'-Biphenyl]-4-butanoic acid, 4'-ethoxy-γ-oxo-α-(2-phenylethyl)-] | 145 | 126 | 21 |  |
| CCCOc1ccc(-c2ccc(C(=O)CC(CCc3ccccc3)C(=O)O)cc2)cc1 (stereo not drawn) [Example 157, [1,1'-Biphenyl]-4-butanoic acid, γ-oxo-α-(2-phenylethyl)-4'-propoxy-] | 142 | 111 | 35 |  |
| CCCCCOc1ccc(-c2ccc(C(=O)CC(CCc3ccccc3)C(=O)O)cc2)cc1 (stereo not drawn) [Example 158, [1,1'-Biphenyl]-4-butanoic acid, γ-oxo-4'-(pentyloxy)-α-(2-phenylethyl)-] | > 500 | 37 | 32 |  |
| CCCCCCOc1ccc(-c2ccc(C(=O)CC(CCc3ccccc3)C(=O)O)cc2)cc1 (stereo not drawn) [Example 159, [1,1'-Biphenyl]-4-butanoic acid, 4'-(hexyloxy)-γ-oxo-α-(2-phenylethyl)-] | > 1250 | 116 | 42 |  |
| CCCCOc1ccc(-c2ccc(C(=O)CC(CCc3ccccc3)C(=O)O)cc2)cc1 (stereo not drawn) [Example 160, [1,1'-Biphenyl]-4-butanoic acid, 4'-butoxy-γ-oxo-α-(2-phenylethyl)-] | 1060 | 147 | 42 |  |
| O=C(CC(CCc1ccccc1)C(=O)O)c1ccc(-c2ccc(OCc3ccccc3)cc2)cc1 (stereo not drawn) [Example 161, [1,1'-Biphenyl]-4-butanoic acid, γ-oxo-α-(2-phenylethyl)-4'-(phenylmethoxy)-] | 1560 | 46 | 38 |  |
| CCCCCOc1ccc(-c2ccc(C(=O)CC(CCc3cccc(I)c3)C(=O)O)cc2)cc1 (stereo not drawn) [Example 162, [1,1'-Biphenyl]-4-butanoic acid, α-[2-(3-iodophenyl)ethyl]-γ-oxo-4'-(pentyloxy)-] |  | 181 | 22 | 8 |
| O=C(CC(CCc1cccc(I)c1)C(=O)O)c1ccc(-c2ccc(OCc3ccccc3)cc2)cc1 (stereo not drawn) [Example 163, [1,1'-Biphenyl]-4-butanoic acid, α-[2-(3-iodophenyl)ethyl]-γ-oxo-4'-(phenylmethoxy)-] |  | 64 | 17 | 18 |
| CCCCCOc1ccc(-c2ccc(C(=O)CC(CCc3cccc(C(=O)N(CC)CC)c3)C(=O)O)cc2)cc1 (stereo not drawn) [Example 164, [1,1'-Biphenyl]-4-butanoic acid, α-[2-[3-[(diethylamino)carbonyl]phenyl]ethyl]-γ-oxo-4'-(pentyloxy)-] | 82 | 30 | 3.9 |  |
| CCN(CC)C(=O)c1cccc(CCC(CC(=O)c2ccc(-c3ccc(OCc4ccccc4)cc3)cc2)C(=O)O)c1 (stereo not drawn) [Example 165, [1,1'-Biphenyl]-4-butanoic acid, α-[2-[3-[(diethylamino)carbonyl]phenyl]ethyl]-γ-oxo-4'-(phenylmethoxy)-] | 55 | 13 | 3 |  |

— patent US5789434A, “Derivatives of substituted 4-biarylbutyric acid as matrix metalloprotease inhibitors” (priority 1995, dated 1998)
